# Inconclusive results and toxic doses are left out.
# Tested on: L1210 leukemia ip in BDF1 mice, survival T/C
# Test: NCI In Vivo Anticancer Drug Screen. Data for tumor model L1210 Leukemia (intraperitoneal) in B6D2F1 (BDF1) mice
# Conditions: endpoint: mean survival time, higher = longer survival
# Outline: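 Tumor was transplanted into mice, which were then dosed with test compound or vehicle alone. Survival was recorded for each group, and the treated figure was expressed relative to the control figure.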
# [1] = dose: 50.0 mg/kg/injection, schedule: Q01DX001 (ip), vehicle: saline
# [2] = dose: 100.0 mg/kg/injection, schedule: Q01DX009 (ip), vehicle: saline
# [3] = dose: 100.0 mg/kg/injection, schedule: Q04DX003 (ip), vehicle: alcohol
# [4] = dose: 200.0 mg/kg/injection, schedule: Q01DX009 (ip), vehicle: saline
# [5] = dose: 200.0 mg/kg/injection, schedule: Q04DX003 (ip), vehicle: alcohol
# [6] = dose: 100.0 mg/kg/injection, schedule: Q04DX003 (ip), vehicle: Klucel (hydroxypropylcellulose) (HPC)
# [7] = dose: 200.0 mg/kg/injection, schedule: Q04DX003 (ip), vehicle: Klucel (hydroxypropylcellulose) (HPC)
# [8] = dose: 400.0 mg/kg/injection, schedule: Q04DX003 (ip), vehicle: Klucel (hydroxypropylcellulose) (HPC)
# [9] = dose: 100.0 mg/kg/injection, schedule: Q04DX003 (ip), vehicle: saline with Tween-80
# [10] = dose: 200.0 mg/kg/injection, schedule: Q04DX003 (ip), vehicle: saline with Tween-80
# [11] = dose: 400.0 mg/kg/injection, schedule: Q04DX003 (ip), vehicle: saline with Tween-80
# [12] = dose: 100.0 mg/kg/injection, schedule: Q01DX009 (ip), vehicle: Klucel (hydroxypropylcellulose) (HPC)
# [13] = dose: 200.0 mg/kg/injection, schedule: Q01DX009 (ip), vehicle: Klucel (hydroxypropylcellulose) (HPC)
# [14] = dose: 400.0 mg/kg/injection, schedule: Q01DX009 (ip), vehicle: Klucel (hydroxypropylcellulose) (HPC)
# [15] = dose: 100.0 mg/kg/injection, schedule: Q01DX001 (ip), vehicle: saline
# [16] = dose: 200.0 mg/kg/injection, schedule: Q01DX001 (ip), vehicle: saline
# [17] = dose: 400.0 mg/kg/injection, schedule: Q01DX001 (ip), vehicle: saline
# [18] = dose: 100.0 mg/kg/injection, schedule: Q04DX003 (ip), vehicle: saline
# [19] = dose: 200.0 mg/kg/injection, schedule: Q04DX003 (ip), vehicle: saline
# [20] = dose: 400.0 mg/kg/injection, schedule: Q04DX003 (ip), vehicle: saline
compound,measurement,setting,value
CCOC(=O)C1C2=C(C(N)=O)C(=O)C(C(=O)O2)C1c1ccc(O)cc1 (stereo not drawn),T/C,"dose: 100.0 mg/kg/injection, schedule: Q01DX001 (ip), vehicle: other",91 % of control
same,T/C,"dose: 200.0 mg/kg/injection, schedule: Q01DX001 (ip), vehicle: other",97 % of control
CCC1CC(C#N)C(=O)NC1=O (stereo not drawn),T/C,"dose: 6.25 mg/kg/injection, schedule: Q01DX009 (ip), vehicle: saline",93 % of control
same,T/C,"dose: 12.5 mg/kg/injection, schedule: Q01DX001 (ip), vehicle: saline",108 % of control
same,T/C,"dose: 12.5 mg/kg/injection, schedule: Q01DX009 (ip), vehicle: saline",91 % of control
same,T/C,"dose: 12.5 mg/kg/injection, schedule: Q04DX003 (ip), vehicle: saline",100 % of control
same,T/C,"dose: 25.0 mg/kg/injection, schedule: Q01DX001 (ip), vehicle: saline",100 % of control
same,T/C,"dose: 25.0 mg/kg/injection, schedule: Q01DX009 (ip), vehicle: saline",93 % of control
same,T/C,"dose: 25.0 mg/kg/injection, schedule: Q04DX003 (ip), vehicle: saline",92 % of control
same,T/C,[1],110 % of control
C[Si](C)(C)OC/C=C\CO[Si](C)(C)C,T/C,[2],96 % of control
same,T/C,[3],103 % of control
same,T/C,[4],94 % of control
same,T/C,[5],101 % of control
same,T/C,"dose: 400.0 mg/kg/injection, schedule: Q04DX003 (ip), vehicle: alcohol",96 % of control
CS(=O)(=O)OCC1CCc2[nH]c3ccccc3c2C1 (stereo not drawn),T/C,[6],108 % of control
same,T/C,[7],97 % of control
same,T/C,[8],97 % of control
CC(C)C(NC(=O)C1CSC(C)(C)N1C=O)C(=O)OC1CCCCC1 (stereo not drawn),T/C,[9],97 % of control
same,T/C,[10],101 % of control
same,T/C,[11],90 % of control
CSc1nc2cc(C)c(C)cc2[nH]1,T/C,[9],107 % of control
same,T/C,[10],94 % of control
same,T/C,[11],94 % of control
CCCCCCCCCCCCCC(=O)OC1C(CO)OC2C1Oc1nc(=N)ccn12 (stereo not drawn),T/C,"dose: 25.0 mg/kg/injection, schedule: Q01DX009 (ip), vehicle: other",152 % of control
same,T/C,"dose: 50.0 mg/kg/injection, schedule: Q01DX009 (ip), vehicle: other",171 % of control
same,T/C,"dose: 100.0 mg/kg/injection, schedule: Q01DX009 (ip), vehicle: other",214 % of control
same,T/C,"dose: 200.0 mg/kg/injection, schedule: Q01DX009 (ip), vehicle: other",179 % of control
O=c1c(N=Nc2ccc(Br)cc2)c(O)n(-c2ccc(Cl)cc2)c(=S)n1-c1ccccc1,T/C,"dose: 37.5 mg/kg/injection, schedule: Q01DX001 (ip), vehicle: Klucel (hydroxypropylcellulose) (HPC)",107 % of control
same,T/C,"dose: 75.0 mg/kg/injection, schedule: Q01DX001 (ip), vehicle: Klucel (hydroxypropylcellulose) (HPC)",108 % of control
same,T/C,"dose: 150.0 mg/kg/injection, schedule: Q01DX001 (ip), vehicle: Klucel (hydroxypropylcellulose) (HPC)",104 % of control
CN(C)c1ccc(C=C2/C(=N\O)c3ccccc3/C2=N/O)cc1,T/C,[12],98 % of control
same,T/C,[13],96 % of control
same,T/C,[14],94 % of control
Cc1ccc(C(=O)N/N=C/C(CC(O)C(O)CO)=N/NC(=O)c2ccc(C)cc2)cc1 (stereo not drawn),T/C,[3],93 % of control
same,T/C,[5],96 % of control
CP1(=O)CCC(Br)C1Br (stereo not drawn),T/C,"dose: 100.0 mg/kg/injection, schedule: Q04DX002 (ip), vehicle: saline with Tween-80",91 % of control
same,T/C,"dose: 200.0 mg/kg/injection, schedule: Q04DX002 (ip), vehicle: saline with Tween-80",91 % of control
same,T/C,"dose: 400.0 mg/kg/injection, schedule: Q04DX002 (ip), vehicle: saline with Tween-80",98 % of control
COc1nc2c(N)ncnc2n1C1OC(CO)C(O)C1O (stereo not drawn),T/C,[15],97 % of control
same,T/C,[16],103 % of control
same,T/C,[17],103 % of control
c1ccc(-c2nncnn2)cc1,T/C,"dose: 25.0 mg/kg/injection, schedule: Q04DX003 (ip), vehicle: saline with Tween-80",97 % of control
same,T/C,"dose: 50.0 mg/kg/injection, schedule: Q04DX003 (ip), vehicle: saline with Tween-80",92 % of control
same,T/C,[9],101 % of control
NC1=C(Sc2ccccc2)C(=O)c2ccccc2C1=O,T/C,"dose: 100.0 mg/kg/injection, schedule: Q01DX001 (ip), vehicle: saline with Tween-80",105 % of control
same,T/C,"dose: 200.0 mg/kg/injection, schedule: Q01DX001 (ip), vehicle: saline with Tween-80",94 % of control
same,T/C,"dose: 400.0 mg/kg/injection, schedule: Q01DX001 (ip), vehicle: saline with Tween-80",94 % of control
CCCCCCCCC1SC1CCCCCCCC(=O)N1CCCN(C(=O)CCCCCCCC2SC2CCCCCCCC)C1 (stereo not drawn),T/C,[9],92 % of control
same,T/C,[10],95 % of control
same,T/C,[11],97 % of control
CN1C(=O)N(C)C(=O)C(Cc2ccccc2)(Cc2ccccc2)C1=O,T/C,"dose: 10.0 mg/kg/injection, schedule: Q01DX001 (ip), vehicle: saline",109 % of control
same,T/C,"dose: 20.0 mg/kg/injection, schedule: Q01DX001 (ip), vehicle: saline",105 % of control
CNC(=O)C(=O)NCCCN1CC1,T/C,"dose: 12.5 mg/kg/injection, schedule: Q04DX003 (ip), vehicle: Klucel (hydroxypropylcellulose) (HPC)",114 % of control
same,T/C,"dose: 25.0 mg/kg/injection, schedule: Q04DX003 (ip), vehicle: Klucel (hydroxypropylcellulose) (HPC)",104 % of control
[O-]/[N+](=C\c1cccc(O)c1)c1ccccc1,T/C,[1],102 % of control
same,T/C,[15],106 % of control
same,T/C,[16],102 % of control
same,T/C,[17],100 % of control
O=C(Nc1ccc(S(=O)(=O)F)cc1)c1cccc([N+](=O)[O-])c1,T/C,[15],101 % of control
same,T/C,[16],100 % of control
same,T/C,[17],97 % of control
c1ccc(CSSCc2ccccc2)cc1,T/C,[12],100 % of control
same,T/C,[18],92 % of control
same,T/C,[13],96 % of control
same,T/C,[19],88 % of control
same,T/C,[14],102 % of control
same,T/C,[20],92 % of control
CC1CCC(C(C)C)C(NCc2cc(Cl)cc(Cl)c2O)C1 (stereo not drawn),T/C,[6],104 % of control
same,T/C,[7],101 % of control
same,T/C,[8],97 % of control
O=C1c2cccc(O)c2C(=O)c2c(O)cccc21,T/C,[2],94 % of control
same,T/C,[18],93 % of control
same,T/C,[4],97 % of control
same,T/C,[19],97 % of control
same,T/C,"dose: 400.0 mg/kg/injection, schedule: Q01DX009 (ip), vehicle: saline",103 % of control
same,T/C,[20],97 % of control
Cc1ccc(C(=O)N/N=C/c2ccc3ccccc3c2)cc1,T/C,"dose: 100.0 mg/kg/injection, schedule: Q04DX002 (ip), vehicle: Klucel (hydroxypropylcellulose) (HPC)",95 % of control
same,T/C,"dose: 200.0 mg/kg/injection, schedule: Q04DX002 (ip), vehicle: Klucel (hydroxypropylcellulose) (HPC)",103 % of control
same,T/C,"dose: 400.0 mg/kg/injection, schedule: Q04DX002 (ip), vehicle: Klucel (hydroxypropylcellulose) (HPC)",95 % of control
O=C(O)/C(Cc1cnc2ccccc2n1)=N\O,T/C,"dose: 100.0 mg/kg/injection, schedule: Q01DX009 (ip), vehicle: saline with Tween-80",104 % of control
same,T/C,[9],105 % of control
same,T/C,"dose: 200.0 mg/kg/injection, schedule: Q01DX009 (ip), vehicle: saline with Tween-80",104 % of control
same,T/C,[10],101 % of control
same,T/C,"dose: 400.0 mg/kg/injection, schedule: Q01DX009 (ip), vehicle: saline with Tween-80",93 % of control
same,T/C,[11],100 % of control
Cc1cc(C)nc(NC(=O)COc2ccc(Cl)cc2)c1,T/C,"dose: 50.0 mg/kg/injection, schedule: Q01DX009 (ip), vehicle: Klucel (hydroxypropylcellulose) (HPC)",97 % of control
same,T/C,[12],100 % of control
same,T/C,[6],101 % of control
same,T/C,[13],93 % of control
same,T/C,[7],97 % of control
CC(C)CCCC(C)C1CCC2C3CC=C4CC(OC(=O)Nc5ccc(S(=O)(=O)c6ccc(F)cc6)cc5)CCC4(C)C3CCC12C (stereo not drawn),T/C,"dose: 100.0 mg/kg/injection, schedule: Q01DX001 (sc), vehicle: steriod suspending solution",89 % of control
same,T/C,"dose: 200.0 mg/kg/injection, schedule: Q01DX001 (sc), vehicle: steriod suspending solution",92 % of control
same,T/C,"dose: 400.0 mg/kg/injection, schedule: Q01DX001 (sc), vehicle: steriod suspending solution",100 % of control
O/N=C/c1cnccn1,T/C,[15],105 % of control
same,T/C,[16],105 % of control
NC(=O)C1C2C=CC(O2)C1C(N)=O (stereo not drawn),T/C,"dose: 100.0 mg/kg/injection, schedule: Q04DX002 (ip), vehicle: saline",89 % of control
same,T/C,"dose: 200.0 mg/kg/injection, schedule: Q04DX002 (ip), vehicle: saline",92 % of control

# Reference: PubChem BioAssay AID248 (DTP/NCI, 2004)
